{
  "source": "patent US8377914B2",
  "about": "“Method of inducing negative chemotaxis” (Celtaxsys, Inc., priority 2008, dated 2013)",
  "test_system": "neutrophils",
  "test": "Chemorepulsion assay of neutrophils in Neuroprobe ChemoTx plates, migrated cells quantified with Cell Titer Glo",
  "type": "cell-based, human",
  "conditions": "for Activity (chemorepulsive activity): screened at 3.7, 11.1, 33.3 and 100 uM",
  "description": "The chemorepulsive activity of idebenone, benazepril, rolipram, moxonidine, lamivudine, calcitriol, calcipotriol, loxoprofen, terbinafine, Synephrine and 6-aminoindazole was determined as follows: • 1. Prior to beginning the assay, the following were prepared: • a. 0.5% Fetal Calf Serum (FCS) in Iscove's Modified Dulbecco's Medium (IMDM) (Assay Medium) (Both from ATCC). • b. Migratory cells at a concentration of 2×10^7 cells/ml in Assay Medium. • c. The indicated dilutions of the ligand of interest in Assay Medium were prepared. • 2. The assay plates are Neuroprobe ChemoTx plates, part number 206-3 (3 um pore size) for neutrophils. • 3. The plates were removed from packaging, leaving the membrane behind. • 4. 31 μl of the following solutions were pipetted into each well: • a. For media controls and for chemorepulsion samples, Assay Medium was used. • b. For chemoattraction samples, appropriate dilution of ligand was used. • 5. A sterile needle was used to pop any and all small bubbles present in each well. • 6. The membrane was carefully placed onto the plate, starting at one side and then slowly lowering the other edge onto the plate. • 7. 29 μl of the following were pipetted onto the top of each circle: • a. For media controls and chemoattraction (CA) samples, use Assay Medium. • b. For chemorepulsion (CR) samples, use the appropriate dilution of ligand. • 8. 2 μl of cells (40,000 cells) were added to each bubble of liquid from step 7. • 9. A needle was used to pop all air bubbles. • 10. The plate was covered with the supplied lid and incubated for the desired time at 37° C. in 5% CO2. Unless otherwise indicated, the incubation time was 1 hour for neutrophils and 3 hours for T cells. For monocytes and B cells, the incubation time was 2 hours. • 11. After the desired assay time, the liquid was removed from the top of the plate using a Kimwipe. At this point, the plate was stored (with the membrane in place) for up to 2 hours at 4° C. • 12. The membrane was carefully removed from the top of the plate and discard. The plate was examined under a microscope to look for ligand crystallization, contamination and overall migration. • 13. White read plates were preloaded with 25 ul PBS. • 14. Using a multichannel pipettor, 5 ul of Cell Titer Glo (Promega # G7572) was added to each well. • 15. Using a multichannel pipettor set at 30 ul, lysed cell solution was transferred to white read plates pre-loaded with PBS. • 16. The plate was read using the BioTek Synergy4 plate reader in order to quantify the number of migrated cells.\nThe calcitriol analogs listed below were screened at concentrations of 3.7, 11.1, 33.3 and 100 uM as described above for chemorepulsive activity (FIGS. 11-13).",
  "key": {"[1]": {"conditions": "Homo sapiens, Neutrophil, read-out: fold induction of chemorepulsion over media"}, "[2]": {"conditions": "Homo sapiens, Neutrophil, neutrophils, 0.1 uM, replicates, read-out: fold induction of chemorepulsion over media"}},
  "note": "Like-named read-outs stand apart in the source and are kept apart here.",
  "data": [
    {"compound": "CN(C/C=C/C#CC(C)(C)C)Cc1cccc2ccccc12", "note": "[terbinafine, N,6,6-trimethyl-N-(naphthalen-1-ylmethyl)hept-2-en-4-yn-1-amine]", "values": [
      {"measurement": "fold induction at 89 µM", "setting": "Homo sapiens, Neutrophil, neutrophils, 89 uM, read-out: fold induction of chemorepulsion over media", "result": "> 2.5"}
    ]},
    {"compound": "CC(C(=O)O)c1ccc(CC2CCCC2=O)cc1", "note": "(stereo not drawn) [loxoprofen]", "values": [
      {"measurement": "fold induction at 0.091 µM", "setting": "[1]", "result": "> 2"}
    ]},
    {"compound": "CCOC(=O)[C@H](CCc1ccccc1)N[C@H]1CCc2ccccc2N(CC(=O)O)C1=O", "note": "[benazepril]", "values": [
      {"measurement": "fold induction at 0.92 µM", "setting": "[1]", "result": "~2"}
    ]},
    {"compound": "C=C1CC[C@H](O)C/C1=C/C=C1\\CCC[C@]2(C)[C@@H]([C@H](C)CCCC(C)(C)O)CC[C@@H]12", "note": "[Calcefidiol]", "values": [
      {"measurement": "Activity (chemorepulsive activity)", "setting": "neutrophils", "result": "No activity"}
    ]},
    {"compound": "C=C1CC[C@H](O)C/C1=C/C=C1\\CCC[C@]2(C)[C@@H]([C@H](C)/C=C/[C@H](C)C(C)C)CC[C@@H]12", "note": "[Vitamin D2, ergocalciferol]", "values": [
      {"measurement": "Activity (chemorepulsive activity)", "setting": "neutrophils", "result": "Chemorepellant"}
    ]},
    {"compound": "COc1nc(C)nc(Cl)c1NC1=NCCN1", "note": "[moxonidine]", "values": [
      {"measurement": "fold induction at 0.092 µM", "setting": "Homo sapiens, Neutrophil, neutrophils, 0.092 uM, replicates, read-out: fold induction of chemorepulsion over media", "result": "~2"},
      {"measurement": "fold induction at 9.9 µM", "setting": "Homo sapiens, Neutrophil, neutrophils, 9.9 uM, replicates, read-out: fold induction of chemorepulsion over media", "result": "> 2"}
    ]},
    {"compound": "C=C1/C(=C\\C=C2/CCC[C@]3(C)[C@@H]([C@H](C)/C=C/[C@H](C)C(C)C)CC[C@@H]23)C[C@@H](O)C[C@@H]1O", "note": "[1α-hydroxyvitamin D2]", "values": [
      {"measurement": "Activity (chemorepulsive activity)", "setting": "neutrophils", "result": "No activity"}
    ]},
    {"compound": "Nc1ccc2c[nH]nc2c1", "note": "[6-aminoindazole]", "values": [
      {"measurement": "fold induction at 0.1 µM", "setting": "[2]", "result": "> 3"}
    ]},
    {"compound": "C=C1/C(=C\\C=C2/CCCC3(C)C2CCC3[C@@H](C)CCCC(C)(C)O)C[C@@H](O)CC1O", "note": "(stereo partly drawn) [calcitriol, 1,25-dihydroxyvitamin D]", "values": [
      {"measurement": "fold induction at 100 µM", "setting": "Homo sapiens, Neutrophil, neutrophils, 100 uM, read-out: fold induction of chemorepulsion over media", "result": "> 3"}
    ]},
    {"compound": "COc1ccc(C2CNC(=O)C2)cc1OC1CCCC1", "note": "(stereo not drawn) [rolipram, 4-(3-cyclopentyloxy-4-methoxy-phenyl)pyrrolidin-2-one]", "values": [
      {"measurement": "fold induction at 0.1 µM", "setting": "[2]", "result": 2}
    ]},
    {"compound": "C=C1/C(=C\\C=C2/CCC[C@]3(C)[C@@H]([C@H](C)CCCC(C)C)CC[C@@H]23)C[C@@H](O)C[C@@H]1O", "note": "[1α-hydroxycholecalciferol]", "values": [
      {"measurement": "Activity (chemorepulsive activity)", "setting": "neutrophils", "result": "No activity"}
    ]},
    {"compound": "CNCC(O)c1ccc(O)cc1", "note": "(stereo not drawn) [synephrine]", "values": [
      {"measurement": "fold induction at 0.1 µM", "setting": "[1]", "result": "> 2"}
    ]},
    {"compound": "C=C1/C(=C\\C=C2/CCC[C@]3(C)[C@@H]([C@H](C)/C=C/[C@@H](O)C4CC4)CC[C@@H]23)C[C@@H](O)C[C@@H]1O", "note": "[Calcipotriene]", "values": [
      {"measurement": "Activity (chemorepulsive activity)", "setting": "neutrophils", "result": "Chemorepellant"}
    ]},
    {"compound": "C=C1CC[C@H](O)C/C1=C/C=C1\\CCC[C@]2(C)[C@@H]([C@H](C)CCCC(C)C)CC[C@@H]12", "note": "[Vitamin D3, cholecalciferol]", "values": [
      {"measurement": "Activity (chemorepulsive activity)", "setting": "neutrophils", "result": "Chemorepellant"}
    ]}
  ]
}
